Target: T1, human GLP-1 receptor (Homo sapiens, UniProt P43220)
T1 construct: expressed in transfected cells
Test: GLP-1R cAMP Assay
Format: cell-based
Settings: cAMP accumulation in CHO cells stably overexpressing the human GLP-1 receptor; 30 min treatment; HitHunter cAMP kit; read-out: EC50
Description: cAMP accumulation was measured in Chinese hamster ovary (CHO) cells stably overexpressing the human GLP-1 receptor using the HitHunter cAMP Assay for Small Molecules Kit (Eurofins). Briefly, cells were grown in Ham's F12 Nutrient Mix with 10% FBS, and lifted with Cell Dissociation Buffer, Enzyme free, PBS based (ThermoFisher). […] The anti-cAMP antibody reagent was then added to cells at a 1:2 ratio and 5 μL of mixture was seeded in 384-well small volume white assay plates, at 10,000 cells/well. Cells were then treated with 50 nL compound using an ECHO 550 acoustic dispenser (Labcyte) in a 20-point dose response format in triplicate for 30 min. Cells were then lysed, and detection reagents added according to the manufacturer's protocol. After overnight incubation, luminescence was measured using a Perkin Elmer Envision plate reader. Dose response curves were analyzed using GraphPad Prism 9.0.

T1 sequence (P43220 24-463): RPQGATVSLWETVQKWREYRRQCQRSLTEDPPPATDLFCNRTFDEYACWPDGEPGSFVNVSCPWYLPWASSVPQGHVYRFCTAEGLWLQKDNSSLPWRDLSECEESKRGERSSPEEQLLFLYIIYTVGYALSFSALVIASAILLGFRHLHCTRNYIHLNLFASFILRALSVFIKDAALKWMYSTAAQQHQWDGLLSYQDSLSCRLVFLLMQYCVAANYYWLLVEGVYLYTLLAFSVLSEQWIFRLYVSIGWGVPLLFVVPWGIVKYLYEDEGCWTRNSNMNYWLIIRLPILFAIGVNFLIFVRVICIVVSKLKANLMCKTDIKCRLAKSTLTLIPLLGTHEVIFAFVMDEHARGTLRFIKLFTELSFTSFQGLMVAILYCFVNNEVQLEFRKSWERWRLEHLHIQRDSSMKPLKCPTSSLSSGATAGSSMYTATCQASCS

EC50 | SMILES
< 50 nM | CCn1cncc1Cn1c(CN2CCC(C(O)c3cccc(COc4ccc(C)cc4Cl)c3)CC2)nc2ccc(C(=O)O)cc21 (racemic) [Example 130, 2-((4-((3-((2-Chloro-4-methylphenoxy)methyl)phenyl)(hydroxy)methyl)piperidin-1-yl)methyl)-1-((1-ethyl-1H-imidazol-5-yl)methyl)-1H-benzo[d]imidazole-6-carboxylic acid]
< 50 nM | CCn1cncc1Cn1c(CN2CCC(C(F)c3cccc(COc4ccc(C)cc4Cl)c3)CC2)nc2ccc(C(=O)O)cc21 (racemic) [Example 131, 2-((4-((3-((2-Chloro-4-methylphenoxy)methyl)phenyl)fluoromethyl)piperidin-1-yl)methyl)-1-((1-ethyl-1H-imidazol-5-yl)methyl)-1H-benzo[d]imidazole-6-carboxylic acid]
50 to 500 nM | CC(Oc1ccc(C#N)cc1F)c1nccc(OC2CCN(Cc3nc4ccc(C(=O)O)cc4n3C[C@@H]3CCO3)CC2)n1 (mixture of isomers) [Example 480, 2-((4-((2-(1-(4-Cyano-2-fluorophenoxy)ethyl)pyrimidin-4-yl)oxy)piperidin-1-yl)methyl)-1-(((S)-oxetan-2-yl)methyl)-1H-benzo[d]imidazole-6-carboxylic acid]
> 500 nM | C[C@@H](Oc1ccc(Cl)cc1Cl)c1ccc(C(=O)N2CCN(Cc3nc4ccc(C(=O)O)cc4n3C[C@@H]3CCO3)CC2)o1 (relative stereo) [Example 94, 2-((4-(5-((R)-1-(2,4-dichlorophenoxy)ethyl)furan-2-carbonyl)piperazin-1-yl)methyl)-1-(((S)-oxetan-2-yl)methyl)-1H-benzo[d]imidazole-6-carboxylic acid]
< 50 nM | CCn1cncc1Cn1c(CN2CCC([C@H](F)c3cccc(COc4ccc(Cl)cc4Cl)c3)CC2)nc2ccc(C(=O)O)cc21 (single isomer, unassigned) [Compound 202]
< 50 nM | CCn1cncc1Cn1c(CN2CCC([C@@H](F)c3cccc(COc4ccc(Cl)cc4Cl)c3)CC2)nc2ccc(C(=O)O)cc21 (single isomer, unassigned) [Compound 203]
> 500 nM | C[C@H](Oc1ccc(Cl)cc1Cl)c1ccc(C(=O)N2CCN(Cc3nc4ccc(C(=O)O)cc4n3C[C@@H]3CCO3)CC2)o1 (single isomer, unassigned) [Example 96]
50 to 500 nM | CCn1cncc1Cn1c(CN2CCC([C@@H](OC)c3cccc(COc4ccc(Cl)cc4Cl)c3)CC2)nc2ccc(C(=O)O)cc21 (single isomer, unassigned) [Example 204]
50 to 500 nM | CCn1cncc1Cn1c(CN2CCC([C@H](OC)c3cccc(COc4ccc(Cl)cc4Cl)c3)CC2)nc2ccc(C(=O)O)cc21 (single isomer, unassigned) [Example 205]
> 500 nM | O=C(O)c1ccc2nc(CN3CCN(C(=O)c4cccc(Cc5ccc(F)cc5)c4)CC3)n(C[C@@H]3CCO3)c2c1 [Compound 3, 2-[(4-{3-[(4-fluorophenyl)methyl]benzoyl}piperazin-1-yl)methyl]-1-{[(2S)-oxetan-2-yl]methyl}-1H-1,3-benzodiazole-6-carboxylic acid]
> 500 nM | N#Cc1ccccc1Oc1ccccc1C(=O)N1CCN(Cc2nc3ccc(C(=O)O)cc3n2C[C@@H]2CCO2)CC1 [Compound 4, 2-({4-[2-(2-cyanophenoxy)benzoyl]piperazin-1-yl}methyl)-1-{[(2S)-oxetan-2-yl]methyl}-1H-1,3-benzodiazole-6-carboxylic acid]
> 500 nM | Cc1ccc(Oc2cccc(C(=O)N3CCN(Cc4nc5ccc(C(=O)O)cc5n4C[C@@H]4CCO4)CC3)c2)cc1 [Compound 5, 2-({4-[3-(4-methylphenoxy)benzoyl]piperazin-1-yl}methyl)-1-{[(2S)-oxetan-2-yl]methyl}-1H-1,3-benzodiazole-6-carboxylic acid]
> 500 nM | COc1ccc(Oc2cccc(C(=O)N3CCN(Cc4nc5ccc(C(=O)O)cc5n4C[C@@H]4CCO4)CC3)c2)cc1 [Compound 6, 2-({4-[3-(4-methoxyphenoxy)benzoyl]piperazin-1-yl}methyl)-1-{[(2S)-oxetan-2-yl]methyl}-1H-1,3-benzodiazole-6-carboxylic acid]
> 500 nM | O=C(O)c1ccc2nc(CN3CCN(C(=O)c4cccc(Oc5ccc(Cl)cc5)c4)CC3)n(C[C@@H]3CCO3)c2c1 [Compound 7, 2-({4-[3-(4-chlorophenoxy)benzoyl]piperazin-1-yl}methyl)-1-{[(2S)-oxetan-2-yl]methyl}-1H-1,3-benzodiazole-6-carboxylic acid]
50 to 500 nM | Cc1c(Cl)cccc1OCc1ccc(CN2CCN(Cc3nc4ccc(C(=O)O)cc4n3C[C@@H]3CCO3)CC2)o1 [Compound 8, 2-{[4-({5-[(3-chloro-2-methylphenoxy)methyl]furan-2-yl}methyl)piperzin-1-yl]methyl}-1-{[(2S)-oxetan-2-yl]methyl}-1H-1,3-benzodiazole-6-carboxylic acid]
50 to 500 nM | O=C(O)c1ccc2nc(CN3CCN(Cc4ccc(COc5ccc(Cl)cc5Cl)o4)CC3)n(C[C@@H]3CCO3)c2c1 [Compound 9, 2-{[4-({5-[(2,4-dichlorophenoxy)methyl]furan-2-yl}methyl)piperzin-1-yl]methyl}-1-{[(2S)-oxetan-2-yl]methyl}-1H-1,3-benzodiazole-6-carboxylic acid]
> 500 nM | O=C(O)c1ccc2nc(CN3CCN(C(=O)c4cccc(Oc5cc(Cl)ccc5Cl)c4)CC3)n(C[C@@H]3CCO3)c2c1 [Compound 11, 2-({4-[3-(2,5-dichlorophenoxy)benzoyl]piperazin-1-yl}methyl)-1-{[(2S)-oxetan-2-yl]methyl}-1H-1,3-benzodiazole-6-carboxylic acid]
> 500 nM | O=C(O)c1ccc2nc(CN3CCN(C(=O)c4cccc(Oc5cc(Cl)ccc5F)c4)CC3)n(C[C@@H]3CCO3)c2c1 [Compound 12, 2-({4-[3-(5-chloro-2-fluorophenoxy)benzoyl]piperazin-1-yl}methyl)-1-{[(2S)-oxetan-2-yl]methyl}-1H-1,3-benzodiazole-6-carboxylic acid]
> 500 nM | O=C(O)c1ccc2nc(CN3CCN(C(=O)c4cccc(Oc5ccc(F)cc5)c4)CC3)n(C[C@@H]3CCO3)c2c1 [Compound 13, 2-({4-[3-(4-fluorophenoxy)benzoyl]piperazin-1-yl}methyl)-1-{[(2S)-oxetan-2-yl]methyl}-1H-1,3-benzodiazole-6-carboxylic acid]
50 to 500 nM | Cc1ccc(Oc2cccc(C(=O)N3CCN(Cc4nc5ccc(C(=O)O)cc5n4C[C@@H]4CCO4)CC3)c2)c(Cl)c1 [Compound 15, 2-({4-[3-(2-chloro-4-methylphenoxy)benzoyl]piperazin-1-yl}methyl)-1-{[(2S)-oxetan-2-yl]methyl}-1H-1,3-benzodiazole-6-carboxylic acid]
> 500 nM | Cc1ccc(Oc2cccc(C(=O)N3CCN(Cc4nc5ccc(C(=O)O)cc5n4C[C@@H]4CCO4)CC3)c2)c(F)c1 [Compound 16, 2-({4-[3-(2-fluoro-4-methylphenoxy)benzoyl]piperazin-1-yl}methyl)-1-{[(2S)-oxetan-2-yl]methyl}-1H-1,3-benzodiazole-6-carboxylic acid]
> 500 nM | Cc1cccc(Oc2cccc(C(=O)N3CCN(Cc4nc5ccc(C(=O)O)cc5n4C[C@@H]4CCO4)CC3)c2)c1 [Compound 17, 2-({4-[3-(3-methylphenoxy)benzoyl]piperazin-1-yl}methyl)-1-{[(2S)-oxetan-2-yl]methyl}-1H-1,3-benzodiazole-6-carboxylic acid]
